Measured values published in DBAASP.
Converted amounts (≈) assume the structure as drawn. “And” between values parts separate entries of the source, which are not always exact repeats. Identical values can stand only once.

Key:
Test in all cases: ≥ marks a high value that may be exact or a test limit, other limits are often not marked, values filed in µg/mL are converted to µM
[1] = test system: Staphylococcus aureus DBFIQ S21
[2] = test system: Listeria monocytogenes DBFIQ LM3
[3] = test system: Bacillus subtilis var. niger ATCC 9372
Escherichia coli K91BK = test system: Escherichia coli K91BK
[4] = test system: Bacillus anthracis Sterne 34F2
[5] = test system: Staphylococcus aureus CCARM 3108
[6] = test system: Staphylococcus aureus CCARM 3114
[7] = test system: Salmonella typhimurium CCARM 8003
[8] = test system: Salmonella typhimurium KCTC 1926
[9] = test system: Staphylococcus aureus CCARM 3089
[10] = test system: Staphylococcus aureus KCTC 1621
[11] = test system: Escherichia coli KCTC 1682
[12] = test system: Bacillus subtilis KCTC 3068
[13] = test system: Pseudomonas aeruginosa KCTC 1637
[14] = test system: Escherichia coli CCARM 1229
[15] = test system: Staphylococcus epidermidis KCTC 1917
Malassezia furfur = test system: Malassezia furfur
Candida albicans = test system: Candida albicans
[16] = test system: Salmonella typhimurium CCARM 8007
Trichosporon beigelii = test system: Trichosporon beigelii
Aspergillus flavus = test system: Aspergillus flavus
[17] = test system: Staphylococcus hominis M2967
[18] = test system: Enterococcus faecium M2304
[19] = test system: Klebsiella pneumoniae M9170
[20] = test system: Escherichia coli ATCC 25922
Acinetobacter sp. M5949 = test system: Acinetobacter sp. M5949
Acinetobacter sp. M9013 = test system: Acinetobacter sp. M9013
[21] = test system: Staphylococcus hominis M2973
[22] = test system: Enterococcus gallinarum M2723
[23] = test system: Staphylococcus saprophyticus M4070
[24] = test system: Staphylococcus haemolyticus M2976
Acinetobacter sp. M13523 = test system: Acinetobacter sp. M13523
[25] = test system: Pseudomonas aeruginosa M13513
[26] = test system: Staphylococcus epidermidis M2921
[27] = test system: Enterococcus faecalis M4899
[28] = test system: Staphylococcus epidermidis M2923
[29] = test system: Pseudomonas aeruginosa PACO12
Staphylococcus cohnii = test system: Staphylococcus cohnii
[30] = test system: Enterococcus faecium PZAP 95
[31] = test system: Klebsiella pneumoniae PFAV 3
[32] = test system: Staphylococcus aureus P204
[33] = test system: Enterococcus faecalis M6983
Acinetobacter sp. M9665 = test system: Acinetobacter sp. M9665
[34] = test system: Pseudomonas aeruginosa ATCC 27853
[35] = test system: Enterococcus gallinarum M2685
[36] = test system: Enterococcus faecalis ATCC 29212
Escherichia coli M9884 = test system: Escherichia coli M9884
[37] = test system: Staphylococcus aureus ATCC 25923
[38] = test system: Pseudomonas aeruginosa M5470
Staphylococcus warneri = test system: Staphylococcus warneri
[39] = test system: Staphylococcus aureus M6276
[40] = test system: Staphylococcus aureus P33
[41] = test system: Enterococcus faecalis M6534
[42] = test system: Enterococcus faecalis ATCC 51299

In the case of `CC[C@H](C)[C@H](NC(=O)[C@H](C)NC(=O)[C@@H](NC(=O)[C@H](C)NC(=O)CN)[C@@H](C)O)C(=O)N[C@@H](CCCCN)C(=O)N[C@@H](CCC(N)=O)C(=O)N[C@H](C(=O)N[C@@H](CCCCN)C(=O)N[C@@H](CCCCN)C(=O)N[C@@H](CC(C)C)C(=O)N[C@@H](Cc1c[nH]c2ccccc12)C(=O)N[C@@H](CCCCN)C(=O)N[C@@H](CCCCN)C(=O)N[C@@H](CCCCN)C(=O)NCC(=O)NCC(N)=O)C(C)C` [GATAIKQVKKLWKKKGG], the MIC [1] is reported as ≥ 69.6 µM and the MIC [2] is reported as ≥ 69.6 µM.
With `CC[C@H](C)[C@H](NC(C)=O)C(=O)N[C@@H](CC(C)C)C(=O)N[C@@H](CCCN=C(N)N)C(=O)N[C@@H](Cc1c[nH]c2ccccc12)C(=O)N1CCC[C@H]1C(=O)N[C@@H](Cc1c[nH]c2ccccc12)C(=O)N[C@@H](Cc1c[nH]c2ccccc12)C(=O)N1CCC[C@H]1C(=O)N[C@@H](Cc1c[nH]c2ccccc12)C(=O)N[C@@H](CCCN=C(N)N)C(=O)N[C@@H](CCCN=C(N)N)C(=O)N[C@@H](CCCCN)C(N)=O` [ILRWPWWPWRRK] the MIC [3] was 3.13 µM (≈ 5.7 µg/mL), the MIC (Escherichia coli K91BK) was ≥ 100 µM and the MIC [4] was 25 µM (≈ 45.5 µg/mL).
In the case of `CC[C@H](C)[C@H](NC(=O)[C@H](C)NC(=O)[C@H](CC(C)C)NC(=O)[C@H](Cc1c[nH]c2ccccc12)NC(=O)[C@H](CC(C)C)NC(=O)[C@@H](N)CCCN=C(N)N)C(=O)NCC(=O)N[C@@H](CCCN=C(N)N)C(=O)N[C@@H](CCCN=C(N)N)C(N)=O` [RLWLAIGRR], the MIC [5] is reported as 4 µM (≈ 4.56 µg/mL), the MIC [6] is reported as 16 µM (≈ 18.2 µg/mL) and the MIC [7] is reported as ≥ 32 µM. The MIC [8] was 16 µM (≈ 18.2 µg/mL), the MIC [9] was 8 µM (≈ 9.12 µg/mL) and the MIC [10] was 4 µM (≈ 4.56 µg/mL). The MIC [11] was 4 µM (≈ 4.56 µg/mL), the MIC [12] was 4 µM (≈ 4.56 µg/mL) and the MIC [13] was 16 µM (≈ 18.2 µg/mL). It also gave an MIC [14] of 8 µM (≈ 9.12 µg/mL) and an MIC [15] of 2 µM (≈ 2.28 µg/mL).
`CC(C)C[C@H](NC(=O)[C@H](Cc1c[nH]c2ccccc12)NC(=O)[C@H](CC(C)C)NC(=O)[C@@H](N)CCCN=C(N)N)C(=O)N[C@@H](C)C(=O)N[C@@H](Cc1c[nH]c2ccccc12)C(=O)N[C@@H](CCCCN)C(=O)N[C@@H](CCCN=C(N)N)C(=O)N[C@@H](CCCN=C(N)N)C(N)=O` [RLWLAWKRR] showed an MIC (Malassezia furfur) of 1.25 µM (≈ 1.6 µg/mL), an MIC (Candida albicans) of 2.5 µM (≈ 3.21 µg/mL) and an MIC [6] of 8 µM (≈ 10.3 µg/mL). For the same compound, the MIC [7] was 4 µM (≈ 5.13 µg/mL), the MIC [8] was 2 µM (≈ 2.57 µg/mL) and the MIC [9] was 4 µM (≈ 5.13 µg/mL). For the same compound, the MIC [16] was 8 µM (≈ 10.3 µg/mL), the MIC (Trichosporon beigelii) was 5 µM (≈ 6.42 µg/mL) and the MIC [10] was 2 µM (≈ 2.57 µg/mL). The MIC [11] was 2 µM (≈ 2.57 µg/mL), the MIC [12] was 2 µM (≈ 2.57 µg/mL) and the MIC [13] was 8 µM (≈ 10.3 µg/mL). It also gave an MIC [14] of 4 µM (≈ 5.13 µg/mL), an MIC (Aspergillus flavus) of 5 µM (≈ 6.42 µg/mL) and an MIC [15] of 1 µM (≈ 1.28 µg/mL).
With `C[C@H](NC(=O)[C@H](CCCCN)NC(=O)[C@H](CCCCN)NC(=O)[C@H](CCCN=C(N)N)NC(=O)CNC(=O)[C@H](Cc1c[nH]c2ccccc12)NC(=O)[C@H](CCCN=C(N)N)NC(=O)[C@H](CCCN=C(N)N)NC(=O)[C@H](CCCCN)NC(=O)[C@H](Cc1c[nH]c2ccccc12)NC(=O)[C@H](CCCCN)NC(=O)[C@H](Cc1c[nH]c2ccccc12)NC(=O)[C@H](Cc1c[nH]c2ccccc12)NC(=O)[C@H](CCCCN)NC(=O)[C@@H]1CCCN1C(=O)[C@@H](N)Cc1c[nH]c2ccccc12)C(=O)N[C@@H](CCCCN)C(=O)N[C@@H](CCCCN)C(=O)N[C@@H](CCCN=C(N)N)C(=O)N[C@@H](CCCN=C(N)N)C(=O)NCC(N)=O` [WPKWWKWKRRWGRKKAKKRRG] the MIC [17] was 2.75 µM (≈ 8 µg/mL), the MIC [18] was 5.5 µM (≈ 16 µg/mL) and the MIC [19] was ≥ 352 µM. The MIC [20] was 44 µM and 43.9 µM, the MIC (Acinetobacter sp. M5949) was ≥ 88 µM and the MIC (Acinetobacter sp. M9013) was 11 µM (≈ 32 µg/mL). For the same compound, the MIC [21] was 1.37 µM (≈ 4 µg/mL), the MIC [22] was 11 µM (≈ 32 µg/mL) and the MIC [23] was 5.5 µM (≈ 16 µg/mL). For the same compound, the MIC [24] was 5.5 µM (≈ 16 µg/mL), the MIC (Acinetobacter sp. M13523) was 22 µM (≈ 64 µg/mL) and the MIC [25] was 11 µM (≈ 32 µg/mL). The MIC [26] was 2.75 µM (≈ 8 µg/mL), the MIC [27] was ≥ 88 µM and the MIC [28] was 5.5 µM (≈ 16 µg/mL). The MIC [29] was 22 µM (≈ 64 µg/mL), the MIC (Staphylococcus cohnii) was 5.5 µM (≈ 16 µg/mL) and the MIC [30] was 11 µM (≈ 32 µg/mL). For the same compound, the MIC [31] was ≥ 352 µM, the MIC [32] was 22 µM (≈ 64 µg/mL) and the MIC [33] was 22 µM (≈ 64 µg/mL). The MIC (Acinetobacter sp. M9665) was ≥ 44 µM, the MIC [34] was 22 µM (≈ 64 µg/mL) and the MIC [35] was 5.5 µM (≈ 16 µg/mL). The MIC [36] was 22 µM (≈ 64 µg/mL), the MIC (Escherichia coli M9884) was ≥ 44 µM and the MIC [37] was 11 µM and 10.9 µM. For the same compound, the MIC [38] was ≥ 44 µM, the MIC (Staphylococcus warneri) was 2.75 µM (≈ 8 µg/mL) and the MIC [39] was 5.5 µM (≈ 16 µg/mL). For the same compound, the MIC [40] was 11 µM (≈ 32 µg/mL), the MIC [41] was ≥ 44 µM and the MIC [42] was ≥ 88 µM.
